Measured values as given in US11566007B2, “Ras inhibitors” (Revolution Medicines, Inc., priority 2019, dated 2023).

What was measured:
KRAS G12S = KRAS G12S (Homo sapiens (Human), UniProt P01116+P62937, G12S); assay: Ras-Raf (BRAF RBD) disruption / FRET / MOA assay, KRAS G12S; assay type: biochemical; details: Ras-Raf disruption/FRET/MOA assay; class symbols; read-out: KRAS G12S FRET data IC50
Summary of the method: (§1)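 A 10-point, 3-fold dilution series topping at 30 μM final was incubated 3 h at 25° C with the Ras/cyclophilin A/BRAF RBD mixture.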

KRAS Q61H = KRAS Q61H (Homo sapiens (Human), UniProt P01116+P62937, Q61H); assay: Ras-Raf (BRAF RBD) disruption / FRET / MOA assay, KRAS Q61H; assay type: biochemical; details: Ras-Raf disruption/FRET/MOA assay; class symbols; read-out: KRAS Q61H FRET data IC50
Chain of KRAS Q61H (P01116-2 other isoform, or with tags, fused parts or gaps Q61H): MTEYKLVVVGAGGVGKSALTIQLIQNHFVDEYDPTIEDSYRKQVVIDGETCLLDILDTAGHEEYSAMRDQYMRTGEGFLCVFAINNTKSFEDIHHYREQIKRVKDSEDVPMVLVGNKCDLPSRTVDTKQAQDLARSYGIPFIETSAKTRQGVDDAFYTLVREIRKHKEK
Chain of KRAS Q61H (P62937 whole entry): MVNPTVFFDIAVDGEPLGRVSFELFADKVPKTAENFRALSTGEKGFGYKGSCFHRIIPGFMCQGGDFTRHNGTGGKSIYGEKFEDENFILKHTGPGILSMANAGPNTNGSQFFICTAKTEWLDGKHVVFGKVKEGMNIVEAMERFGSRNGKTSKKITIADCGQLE
Summary of the method: (§2)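 Compounds (30 μM top final, 10-point 3-fold dilutions) incubated 3 h at 25° C with nucleotide-loaded Ras, cyclophilin A and BRAF RBD. Detection with 10 nM anti-His Eu-W1024 and 50 nM anti-GST allophycocyanin over another 1.5 h. Lowered TR-FRET ratio relative to DMSO wells gives IC50.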

KRAS G12V = KRAS G12V (Homo sapiens (Human), UniProt P01116+P62937, G12V); assay: Ras-Raf (BRAF RBD) disruption / FRET / MOA assay, KRAS G12V; assay type: biochemical; details: read-out: IC50* KRAS G12V FRET data
Chain of KRAS G12V (P01116-2 other isoform, or with tags, fused parts or gaps G12V): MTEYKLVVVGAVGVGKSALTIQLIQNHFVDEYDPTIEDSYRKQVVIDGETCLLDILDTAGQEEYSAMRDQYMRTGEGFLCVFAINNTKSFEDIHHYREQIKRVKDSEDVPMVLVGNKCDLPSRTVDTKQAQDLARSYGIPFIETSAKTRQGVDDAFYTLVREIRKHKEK
Chain of KRAS G12V (P62937 whole entry): as the sequence (P62937 whole entry) above
Summary of the method: as §1

NRAS WT = NRAS WT (Homo sapiens (Human), UniProt P01111+P62937); assay: Ras-Raf (BRAF RBD) disruption / FRET / MOA assay, NRAS WT; assay type: biochemical; details: read-out: IC50* NRAS WT FRET data
Chain of NRAS WT (P01111 whole entry): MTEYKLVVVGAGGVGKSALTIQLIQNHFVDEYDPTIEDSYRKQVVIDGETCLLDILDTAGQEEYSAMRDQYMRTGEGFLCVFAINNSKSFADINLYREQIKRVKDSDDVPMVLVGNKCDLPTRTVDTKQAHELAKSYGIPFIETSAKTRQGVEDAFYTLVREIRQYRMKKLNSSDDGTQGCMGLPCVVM
Chain of NRAS WT (P62937 whole entry): as the sequence (P62937 whole entry) above
Summary of the method: as §2

K-Ras G13C = K-Ras G13C (Homo sapiens (Human), UniProt P01116+P62937, G13C); assay: Ras-Raf (BRAF RBD) disruption / FRET / MOA assay, KRAS G13C; assay type: biochemical; details: KRAS G13C; Ras-Raf disruption/FRET/MOA assay; read-out: IC50* KRAS G13C FRET data
Chain of K-Ras G13C (P01116-2 other isoform, or with tags, fused parts or gaps G13C): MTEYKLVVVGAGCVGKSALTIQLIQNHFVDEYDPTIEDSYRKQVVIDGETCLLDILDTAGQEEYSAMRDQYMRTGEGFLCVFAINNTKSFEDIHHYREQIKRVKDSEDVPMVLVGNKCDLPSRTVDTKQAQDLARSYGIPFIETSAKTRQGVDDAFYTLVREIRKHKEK
Chain of K-Ras G13C (P62937 whole entry): as the sequence (P62937 whole entry) above
Summary of the method: as §1

NCI-H358 (K-Ras G12C) = assay: CellTiter-Glo cell viability assay, NCI-H358; assay type: cell-based, human; details: Homo sapiens, NCI-H358, 120 h, NCI-H358, 5-day treatment; class symbols; read-out: Additional H358 Cell Viability assay data (K-Ras G12C, IC50)
Summary of the method: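 Compounds were dispensed directly onto K-Ras mutant cells and incubated until day 5, then plates were equilibrated to room temperature for about 30 minutes before CellTiter-Glo luminescence. Signals were normalized as (sample/average DMSO)*100 and fitted by four-parameter logistic fit.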

KRAS WT = KRAS WT (Homo sapiens (Human), UniProt P01116+P62937); assay: Ras-Raf (BRAF RBD) disruption / FRET / MOA assay, KRAS WT; assay type: biochemical; details: read-out: IC50* KRAS WT FRET data
Chain of KRAS WT (P01116-2 other isoform, or with tags, fused parts or gaps): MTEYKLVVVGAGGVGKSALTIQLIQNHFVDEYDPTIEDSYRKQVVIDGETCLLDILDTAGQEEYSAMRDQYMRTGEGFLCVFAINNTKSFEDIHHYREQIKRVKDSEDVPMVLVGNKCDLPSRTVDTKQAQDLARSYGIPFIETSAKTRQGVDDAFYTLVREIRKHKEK
Chain of KRAS WT (P62937 whole entry): as the sequence (P62937 whole entry) above
Summary of the method: as §1

NRAS Q61K = NRAS Q61K (Homo sapiens (Human), UniProt P01111+P62937, Q61K); assay: Ras-Raf (BRAF RBD) disruption / FRET / MOA assay, NRAS Q61K; assay type: biochemical; details: NRAS Q61K; Ras-Raf disruption/FRET/MOA assay; read-out: IC50* NRAS Q61K FRET data
Chain of NRAS Q61K (P01111 whole entry Q61K): as the sequence (P01111 whole entry) above, with Q61K counted along it
Chain of NRAS Q61K (P62937 whole entry): as the sequence (P62937 whole entry) above
Summary of the method: as §2

KRAS G12D = KRAS G12D (Homo sapiens (Human), UniProt P01116+P62937, G12D); assay: Ras-Raf (BRAF RBD) disruption / FRET / MOA assay, KRAS G12D; assay type: biochemical; details: Ras-Raf disruption/FRET/MOA assay; class symbols; read-out: KRAS G12D FRET data IC50
Chain of KRAS G12D (P01116-2 other isoform, or with tags, fused parts or gaps G12D): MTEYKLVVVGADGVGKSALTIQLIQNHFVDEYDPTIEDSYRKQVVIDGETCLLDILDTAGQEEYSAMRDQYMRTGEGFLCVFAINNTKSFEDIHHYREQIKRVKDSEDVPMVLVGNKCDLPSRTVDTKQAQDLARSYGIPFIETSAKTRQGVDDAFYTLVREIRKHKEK
Chain of KRAS G12D (P62937 whole entry): as the sequence (P62937 whole entry) above
Summary of the method: as §1

NRAS G12C = NRAS G12C (Homo sapiens (Human), UniProt P01111+P62937, G12C); assay: Ras-Raf (BRAF RBD) disruption / FRET / MOA assay, NRAS G12C; assay type: biochemical; details: read-out: IC50* NRAS G12C FRET data
Chain of NRAS G12C (P01111 whole entry G12C): as the sequence (P01111 whole entry) above, with G12C counted along it
Chain of NRAS G12C (P62937 whole entry): as the sequence (P62937 whole entry) above
Summary of the method: as §1

K-Ras G12C = K-Ras G12C (Homo sapiens (Human), UniProt P01116+P62937, G12C); assay: Ras-Raf (BRAF RBD) disruption / FRET / MOA assay, KRAS G12C; assay type: biochemical; details: KRAS G12C; Ras-Raf disruption/FRET/MOA assay; read-out: IC50* KRAS G12C FRET data
Chain of K-Ras G12C (P01116-2 other isoform, or with tags, fused parts or gaps G12C): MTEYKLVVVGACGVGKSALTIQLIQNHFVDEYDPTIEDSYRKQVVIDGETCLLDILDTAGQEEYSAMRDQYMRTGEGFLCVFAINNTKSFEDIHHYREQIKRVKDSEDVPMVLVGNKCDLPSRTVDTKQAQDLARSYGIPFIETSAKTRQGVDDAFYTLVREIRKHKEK
Chain of K-Ras G12C (P62937 whole entry): as the sequence (P62937 whole entry) above
Summary of the method: as §1

NRAS Q61R = NRAS Q61R (Homo sapiens (Human), UniProt P01111+P62937, Q61R); assay: Ras-Raf (BRAF RBD) disruption / FRET / MOA assay, NRAS Q61R; assay type: biochemical; details: NRAS Q61R; Ras-Raf disruption/FRET/MOA assay; read-out: IC50* NRAS Q61R FRET data
Chain of NRAS Q61R (P01111 whole entry Q61R): as the sequence (P01111 whole entry) above, with Q61R counted along it
Chain of NRAS Q61R (P62937 whole entry): as the sequence (P62937 whole entry) above
Summary of the method: as §2

Chain of KRAS G12S (P01116-2 other isoform, or with tags, fused parts or gaps G12S): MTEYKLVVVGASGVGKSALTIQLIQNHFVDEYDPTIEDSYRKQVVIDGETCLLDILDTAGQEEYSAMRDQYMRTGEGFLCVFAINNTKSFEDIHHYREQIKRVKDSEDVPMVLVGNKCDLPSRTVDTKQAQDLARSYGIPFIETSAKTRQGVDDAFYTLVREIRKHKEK
Chain of KRAS G12S (P62937 whole entry): as the sequence (P62937 whole entry) above

Row | Compound | IC50 (KRAS G12S) | IC50 (KRAS Q61H) | IC50 (KRAS G12V) | IC50 (NRAS WT) | IC50 (K-Ras G13C) | IC50 (NCI-H358 (K-Ras G12C)) | IC50 (KRAS WT) | IC50 (NRAS Q61K) | IC50 (KRAS G12D) | IC50 (NRAS G12C) | IC50 (K-Ras G12C) | IC50 (NRAS Q61R)
1 | C=CC(=O)Nc1ccc(C(=O)N(C)[C@H](C(=O)N[C@H]2Cc3cc(O)cc(c3)-c3ccc4c(c3)c(c(-c3cccnc3[C@H](C)OC)n4CC)CC(C)(C)COC(=O)[C@@H]3CCCN(N3)C2=O)C(C)C)nc1 (atropisomer, axis not shown) [Example A252] | 100 to 1000 nM | 100 to 1000 nM | 100 to 1000 nM | 100 to 1000 nM | < 10 nM | 10 to 100 nM | 100 to 1000 nM | 1000 to 10000 nM | 1000 to 10000 nM | 10 to 100 nM | 10 to 100 nM | 1000 to 10000 nM
2 | C=CC(=O)N1CCN(C(=O)N(C)[C@H](C(=O)N[C@H]2Cc3cc(O)cc(c3)-c3ccc4c(c3)c(c(-c3cccnc3[C@H](C)OC)n4CC)CC(C)(C)COC(=O)[C@@H]3CCCN(N3)C2=O)C(C)C)CC1 (atropisomer, axis not shown) [Example A262] | 10 to 100 nM | 10 to 100 nM | 10 to 100 nM | 10 to 100 nM | < 10 nM | 10 to 100 nM | 10 to 100 nM | 10 to 100 nM | 100 to 1000 nM | 10 to 100 nM | 10 to 100 nM | 100 to 1000 nM
3 | C=CS(=O)(=O)N1CC2(CCN([C@H](C(=O)N[C@H]3Cc4cc(O)cc(c4)-c4ccc5c(c4)c(c(-c4cccnc4[C@H](C)OC)n5CC)CC(C)(C)COC(=O)[C@@H]4CCCN(N4)C3=O)C(C)C)C2=O)C1 (atropisomer, axis not shown) [Example A297] | 100 to 1000 nM | < 10 nM | 100 to 1000 nM | 10 to 100 nM | < 10 nM | 10 to 100 nM | 10 to 100 nM | 10 to 100 nM | 1000 to 10000 nM | < 10 nM | 10 to 100 nM | 100 to 1000 nM
4 | C=CC(=O)N1CC[C@H](C(=O)N(C)[C@H](C(=O)N[C@H]2Cc3cccc(c3)-c3ccc4c(c3)c(c(-c3cccnc3[C@H](C)OC)n4CC(F)(F)F)CC(C)(C)COC(=O)[C@@H]3CCCN(N3)C2=O)C(C)C)C1 (atropisomer, axis not shown) [Example A332] | 1000 to 10000 nM | 100 to 1000 nM | 1000 to 10000 nM | 1000 to 10000 nM | 100 to 1000 nM | < 10 nM | 1000 to 10000 nM | 1000 to 10000 nM | 1000 to 10000 nM | 10 to 100 nM | 10 to 100 nM | 1000 to 10000 nM
5 | C=CC(=O)N1CC[C@H](C(=O)N(C)[C@H](C(=O)N[C@H]2Cc3cc(F)cc(c3)-c3ccc4c(c3)c(c(-c3cccnc3[C@H](C)OC)n4CC)CC(C)(C)COC(=O)[C@@H]3CCCN(N3)C2=O)C(C)C)C1 (atropisomer, axis not shown) [Example A342] | 1000 to 10000 nM | 100 to 1000 nM | 1000 to 10000 nM | 1000 to 10000 nM | 100 to 1000 nM | 10 to 100 nM | 1000 to 10000 nM | 1000 to 10000 nM | 1000 to 10000 nM | 100 to 1000 nM | 10 to 100 nM | 1000 to 10000 nM
6 | CCn1c(-c2cccnc2[C@H](C)OC)c2c3cc(ccc31)-c1cccc(c1)C[C@H](NC(=O)[C@@H](COC1CN(C(=O)C#CC(C)(C)N3CCC3)C1)C(C)C)C(=O)N1CCC[C@H](N1)C(=O)OCC(C)(C)C2 (atropisomer, axis not shown) [Example A346] | > 10000 nM | 1000 to 10000 nM | 1000 to 10000 nM | > 10000 nM | 1000 to 10000 nM | < 10 nM | > 10000 nM | > 10000 nM | > 10000 nM | 10 to 100 nM | < 10 nM | > 10000 nM
7 | CO[C@@H](C)c1ncccc1-c1c2c3cc(ccc3n1CC(F)(F)F)-c1cc(F)cc(c1)C[C@H](NC(=O)[C@@H](COC1CN(C(=O)C#CC(C)(C)N(C)C)C1)C(C)C)C(=O)N1CCC[C@H](N1)C(=O)OCC(C)(C)C2 (atropisomer, axis not shown) [Example A348] | 1000 to 10000 nM | 1000 to 10000 nM | 1000 to 10000 nM | 1000 to 10000 nM | 1000 to 10000 nM | < 10 nM | 1000 to 10000 nM | > 10000 nM | > 10000 nM | < 10 nM | < 10 nM | > 10000 nM
8 | CCn1c(-c2cccnc2[C@H](C)OC)c2c3cc(ccc31)-c1cccc(c1)C[C@H](NC(=O)[C@H](C(C)C)N1CO[C@]3(CCN(C(=O)C#CC(C)(C)N4CCC4)C3)C1=O)C(=O)N1CCC[C@H](N1)C(=O)OCC(C)(C)C2 (atropisomer, axis not shown) [Example A351] | 100 to 1000 nM | 100 to 1000 nM | 1000 to 10000 nM | 100 to 1000 nM | 100 to 1000 nM | < 10 nM | 100 to 1000 nM | 1000 to 10000 nM | 1000 to 10000 nM | < 10 nM | < 10 nM | 1000 to 10000 nM
9 | C=CC(=O)N1CC[C@@]2(CCN(C(=O)N(C)[C@H](C(=O)N[C@H]3Cc4nc(cs4)-c4ccc5c(c4)c(c(-c4cccnc4[C@H](C)OC)n5CC)CC(C)(C)COC(=O)[C@@H]4CCCN(N4)C3=O)C(C)C)C2)C1 (atropisomer, axis not shown) [Example A367] | 10 to 100 nM | 10 to 100 nM | 100 to 1000 nM | 10 to 100 nM | 100 to 1000 nM | 10 to 100 nM | 10 to 100 nM | 10 to 100 nM | 100 to 1000 nM | 10 to 100 nM | 10 to 100 nM | 10 to 100 nM
10 | C=CC(=O)N(C)CC1CN(C(=O)N(C)[C@H](C(=O)N[C@H]2Cc3nc(cs3)-c3ccc4c(c3)c(c(-c3cccnc3[C@H](C)OC)n4CC)CC(C)(C)COC(=O)[C@@H]3CCCN(N3)C2=O)C(C)C)C1 (atropisomer, axis not shown) [Example A368] | 100 to 1000 nM | 10 to 100 nM | 10 to 100 nM | 10 to 100 nM | 100 to 1000 nM | < 10 nM | 100 to 1000 nM | 10 to 100 nM | 100 to 1000 nM | 10 to 100 nM | 10 to 100 nM | 10 to 100 nM
11 | C=CC(=O)N1CC[C@]2(C1)OCN([C@H](C(=O)N[C@H]1Cc3cccc(c3)-c3ccc4c(c3)c(c(-c3cccnc3[C@H](C)OC)n4CC)CC(C)(C)COC(=O)[C@@H]3CCCN(N3)C1=O)C(C)C)C2=O (atropisomer, axis not shown) [Example A371] | 1000 to 10000 nM | 1000 to 10000 nM | > 10000 nM | 1000 to 10000 nM | 100 to 1000 nM | < 10 nM | 1000 to 10000 nM | > 10000 nM | > 10000 nM | 10 to 100 nM | 10 to 100 nM | > 10000 nM
12 | CO[C@@H](C)c1ncccc1-c1c2c3cc(ccc3n1CC(F)(F)F)N1CCO[C@@H](C[C@H](NC(=O)[C@@H](COC3CN(C(=O)C#CC(C)(C)N(C)C)C3)C(C)C)C(=O)N3CCC[C@H](N3)C(=O)OCC(C)(C)C2)C1 (atropisomer, axis not shown) [Example A375, (2R)-2-(((1-(4-(dimethylamino)-4-methylpent-2-ynoyl)azetidin-3-yl)oxy)methyl)-N-((2^2S,6^3S,4S)-1^2-(2-((S)-1-methoxyethyl)pyridin-3-yl)-10,10-dimethyl-5,7-dioxo-1^1-(2,2,2-trifluoroethyl)-6^1,6^2,6^3,6^4,6^5,6^6-hexahydro-1^1H-8-oxa-2(4,2)-morpholina-1(5,3)-indola-6(1,3)-pyridazinacycloundecaphane-4-yl)-3-methylbutanamide] | > 10000 nM | > 10000 nM | 1000 to 10000 nM | 1000 to 10000 nM | 1000 to 10000 nM | < 10 nM | 1000 to 10000 nM | > 10000 nM | > 10000 nM | < 10 nM | < 10 nM | > 10000 nM
